Measurements as given in patent US20050244335A1, “Methods and compositions related to increasing antitumor activity of chemotherapeutic agents” (priority 2004, published 2005).

Experiment: Pharmacokinetics of carboplatin in nude mice bearing A549 xenografts
Type: in vivo
Settings: for AUC / CL / Cmax / T1/2 / Vss: nude mice bearing A549 xenografts, carboplatin 60 mg/kg iv
Experimental: Pharmacokinetics and Tissue Distribution of Carboplatin. Pharmacokinetic studies were carried out using a protocol similar to that previously described (26) using metabolism cages. Female nude mice bearing human colon cancer LS174T xenografts or human lung cancer A549 xenografts were used (3 animals for each time point). Animals were pre-treated with DEX (s.c., 0.1 mg/day/mouse for 5 days) or saline (as controls) and, at 1 hr after the fifth dose of DEX, were given a single intravenously (i.v.) bolus administration of carboplatin (60 mg/kg) via a tail vein. At various times (5, 15, and 30 min, 1, 2, 4, 8, and 24 hr after carboplatin dosing), blood samples were collected in heparinized tubes and tissue samples removed. Plasma was separated by centrifugation at 20,000 g for 5 min. Tissues including liver, kidneys, spleen, and tumor were taken at various times and immediately blotted on Whatman No. 1 filter paper, trimmed of extraneous fat or connective tissue, weighed, and homogenized in 0.9% NaCl physiological saline (5 mL per gram of wet weight). The resultant homogenates were stored at −70° C. until further analysis. Bone marrow cells were harvested by flushing the femurs with sterile physiological saline as reported previously (30). Briefly, after removing the distal and proximal ends of femur, each end of the bone was punctured with a 20-gauge needle fitted with a 5 mL syringe containing 1 mL of sterile physiological saline (pre-weighed). The bone was then held with a forceps over a test tube and the needle was inserted into the hole in the proximal end. The 1 mL saline was flushed through the bone into the tube by applying gentle, steady pressure to the plunger. The syringe was then filled with 5 ml of air that was gently forced through the bone to remove the remaining saline and bone marrow in the shaft. The resultant bone marrow cell suspension was weighed and lysed by sonicating 5 times for periods of 10 sec. Following centrifugation at 20,000 g for 30 min, the supernatant was removed and stored at −70° C. until further analysis.
HPLC Analysis of Carboplatin in Plasma and Tissues. Carboplatin in biological samples was analyzed by an analytical procedure involving micro-filtration and reversed-phase HPLC (31). 200 μL of plasma or tissue homogenates or bone marrow suspension was added to the reservoir of a Centrifree™ micropartition system. The latter was capped and centrifuged at 2,000 g for 5 min. All filtrates were transferred into a new micro centrifuge tube and 6 μL of the filtrates was injected onto the HPLC column. The HPLC system consisted of a Hewlett Packard 1050 ChemStation with a UV detector (Agilent 1050 series). Determination of Carboplatin was achieved using a LiChrosorb™ diol (10 μm, 250×4.6 mm) analytical column with a LiChroCART 100 RP-18 guard column. The mobile phase for plasma was composed of 98:2 acetonitrile:H2O (vol/vol) and 89:11 acetonitrile: 0.015% H3PO4 (vol/vol) for urine and tissue samples. The flow rates were 2 mL/min (for plasma) and 1.1 mL/min (for urine and tissue samples). The column elute was monitored by UV at 229 nm. Quantitation of plasma or tissue carboplatin was carried out by using an external standard curve (0-4,000.0 μg/mL) that was freshly prepared on a daily basis. Linear regression and correlation analysis were carried out to establish the standard peak-area/concentration curves for carboplatin.
Data and Statistical Analysis.

N.N.O=C([O-])C1(C(=O)[O-])CCC1.[Pt+2] [carboplatin]
increase in tumor AUC by DEX pretreatment (A549 nude mice): 50%
AUC (bone marrow, DEX (+)): 517210 ng·h/mL
CL (bone marrow, DEX (+)): 0.01 mL/g/h
Cmax (bone marrow, DEX (+)): 27290 ng/mL
T1/2 (bone marrow, DEX (+)): 30 min
Vss (bone marrow, DEX (+)): 2.72 mL/g
AUC (bone marrow, DEX (−)): 641040 ng·h/mL
CL (bone marrow, DEX (−)): 0.01 mL/g/h
Cmax (bone marrow, DEX (−)): 32580 ng/mL
T1/2 (bone marrow, DEX (−)): 30 min
Vss (bone marrow, DEX (−)): 1.97 mL/g
AUC (liver, DEX (+)): 21680 ng·h/mL
CL (liver, DEX (+)): 4.79 mL/g/h
Cmax (liver, DEX (+)): 5910 ng/mL
T1/2 (liver, DEX (+)): 60 min
Vss (liver, DEX (+)): 9.05 mL/g
AUC (liver, DEX (−)): 26320 ng·h/mL
CL (liver, DEX (−)): 3.99 mL/g/h
Cmax (liver, DEX (−)): 7000 ng/mL
T1/2 (liver, DEX (−)): 60 min
Vss (liver, DEX (−)): 8.31 mL/g
AUC (plasma, DEX (+)): 66080 ng·h/mL
CL (plasma, DEX (+)): 0.91 mL/g/h
Cmax (plasma, DEX (+)): 411890 ng/mL
T1/2 (plasma, DEX (+)): 6.6 min
Vss (plasma, DEX (+)): 0.15 mL/g
AUC (plasma, DEX (−)): 55220 ng·h/mL
CL (plasma, DEX (−)): 1.09 mL/g/h
Cmax (plasma, DEX (−)): 357340 ng/mL
T1/2 (plasma, DEX (−)): 6.6 min
Vss (plasma, DEX (−)): 0.17 mL/g
AUC (spleen, DEX (+)): 75590 ng·h/mL
CL (spleen, DEX (+)): 0.79 mL/g/h
Cmax (spleen, DEX (+)): 482140 ng/mL
T1/2 (spleen, DEX (+)): 6.6 min
Vss (spleen, DEX (+)): 0.12 mL/g
AUC (spleen, DEX (−)): 359440 ng·h/mL
CL (spleen, DEX (−)): 0.17 mL/g/h
Cmax (spleen, DEX (−)): 341990 ng/mL
T1/2 (spleen, DEX (−)): 43.8 min
Vss (spleen, DEX (−)): 0.18 mL/g
AUC (tumor, DEX (+)): 15480 ng·h/mL
CL (tumor, DEX (+)): 3.88 mL/g/h
Cmax (tumor, DEX (+)): 64090 ng/mL
T1/2 (tumor, DEX (+)): 10.2 min
Vss (tumor, DEX (+)): 0.94 mL/g
AUC (tumor, DEX (−)): 10160 ng·h/mL
CL (tumor, DEX (−)): 5.90 mL/g/h
Cmax (tumor, DEX (−)): 32150 ng/mL
T1/2 (tumor, DEX (−)): 13.2 min
Vss (tumor, DEX (−)): 1.87 mL/g
